# Test results as given in US20100222330A1, “New Compounds” (BIOVITRUM AB, priority 2001, published 2010).
# Experiments:
# ob/ob mouse = experiment: In vivo assay of reduction of food intake (15 h, osmotic minipump infusion); settings: for % Inhibition of Food Intake in ob/ob mice at 50 mg/Kg/day, 15 h: continuous subcutaneous infusion
# Procedure: Obese (ob/ob) mouse is selected as the primary animal model for screening as this mutant mouse consumes high amounts of food resulting in a high signal to noise ratio. To further substantiate and compare efficacy data, the effect of the compounds on food consumption is also studied in wild type (C57BL/6J) mice. The amount of food consumed during 15 hours of infusion of compounds is recorded.
# Male mice (obese C57BL/6JBom-Lee and lean wild-type C57B1/6JBom; Bomholtsgaard, Denmark) 8-9 weeks with an average body weight of 50 g (obese) and 25 g (lean) are used in all the studies. The animals are housed singly in cages at 23±1° C., 40-60% humidity and have free access to water and standard laboratory chow. The 12/12-h light/dark cycle is set to lights off at 5 p.m. The animals are conditioned for at least one week before start of study.
# The test compounds are dissolved in solvents suitable for each specific compound such as cyclodextrin, cyclodextrin/methane sulfonic acid, polyethylene glycol/methane sulfonic acid, saline. Fresh solutions are made for each study. […] The purity of the test compounds is of analytical grade.
# The animals are weighed at the start of the study and randomized based on body weight. Alzet osmotic minipumps (Model 2001 D; infusion rate 8 μl/h) are used and loaded essentially as recommended by the Alzet technical information manual (Alza Scientific Products, 1997; Teeuwes and Yam, 1976). Continuous subcutaneous infusion with 24 hours duration is used. The minipumps are either filled with different concentrations of test compounds dissolved in vehicle or with only vehicle solution and maintained in vehicle pre-warmed to 37° C. (approx. 1 h). The minipumps are implanted subcutaneously in the neck/back region under short acting anesthesia (metofane/enflurane). This surgical procedure lasts approximately 5 min. It takes about 3 h to reach steady state delivery of the compound.
# (§1) The weight of the food pellets are measured at 5 p.m. and at 8 p.m. for two days before (baseline) and one day after the implantation of the osmotic minipumps. The weigh-in is performed with a computer assisted Mettler Toledo PR 5002 balance. Occasional spillage is corrected for. At the end of the study the animals are killed by neck dislocation and trunk blood sampled for later analysis of plasma drug concentrations.
# Food consumption for 15 hours is measured for the three consecutive days and the percentage of basal level values is derived for each animal from the day before and after treatment. The values are expressed as mean±SD and ±SEM from eight animals per dose group. Statistical evaluation is performed by Kruskal-Wallis one-way ANOVA using the percent basal values. If statistical significance is reached at the level of p<0.05, Mann-Whitney U-test for statistical comparison between control and treatment groups is performed.
# [1] = Plasma drug concentration at steady state in the food intake study (LC/MS); assay type: in vivo; set-up: unit not given here; settings: ob/ob mouse, trunk blood at end of study
# Procedure: as §1
# The plasma sample proteins are precipitated with methanol, centrifuged and the supernatant is transferred to HPLC vials and injected into the liquid chromatography/mass spectrometric system. The mass spectrometer is set for electrospray positive ion mode and Multiple Reaction Monitoring (MRM with the transition m/z 316 ? 221). A linear regression analysis of the standards forced through the origin is used to calculate the concentrations of the unknown samples.
melting point,"Free plasma concentration of the compounds at steady state (Css, u) [1]",SMILES,"% Inhibition of Food Intake in ob/ob mice at 50 mg/Kg/day, 15 h (ob/ob mouse)","% Inhibition of Food Intake in ob/ob mice, 15 h (ob/ob mouse; dose of 100 mg/kg/d (footnote b))","% Inhibition of Food Intake in ob/ob mice, 15 h (ob/ob mouse; dose of 14.8 mg/kg/d (footnote a))"
181 °C (dec.),–,Cc1ccc(S(=O)(=O)Nc2ccc(N3CCNCC3)c3ccccc23)cc1.Cl,–,–,–
–,0.23,"Cc1ccc(S(=O)(=O)N(C)c2ccc(N3CCNCC3)c3ccccc23)cc1.Cl [Example 14, N,4-Dimethyl-N-[4-(1-piperazinyl)-1-naphthyl]benzenesulfonamide, hydrochloride]",–,41^b %,–
–,0.0076,"Cl.O=S(=O)(Nc1ccc(N2CCNCC2)c2ccccc12)c1cccc(C(F)(F)F)c1 [Example 24, 3-Trifluoromethyl-N-[4-(1-piperazinyl)-1-naphthyl]benzenesulfonamide, hydrochloride]",46.2%,–,–
–,0.008,"Cl.O=S(=O)(Nc1ccc(N2CCNCC2)c2ccccc12)c1cccc2ccccc12 [Example 27, Naphthalene-1-sulfonic acid (4-piperazin-1-yl-naphthalen-1-yl)-amide, hydrochloride]",68.9%,–,–
–,0.33,"COc1ccc(S(=O)(=O)Nc2ccc(N3CCNCC3)c3ccccc23)cc1.Cl [Example 29, 4-Methoxy-N-(4-piperazin-1-yl-naphthalen-1-yl)-benzenesulfonamide, hydrochloride]",71%,–,–
–,0.078,"Cc1ccc(F)cc1S(=O)(=O)Nc1ccc(N2CCNCC2)c2ccccc12.Cl [Example 34, 5-Fluoro-2-methyl-N-(4-piperazin-1-yl-naphthalen-1-yl)-benzenesulfonamide, hydrochloride]",51.4%,–,–
–,0.008,"Cc1c(Cl)cccc1S(=O)(=O)Nc1ccc(N2CCNCC2)c2ccccc12.Cl [Example 48, 3-Chloro-2-methyl-N-(4-piperazin-1-yl-naphthalen-1-yl)-benzenesulfonamide, hydrochloride]",23.8%,–,–
–,–,"Cc1cc(Cl)cc(Cl)c1S(=O)(=O)Nc1ccc(N2CCNCC2)c2ccccc12.Cl [Example 53, 2,4-Dichloro-6-methyl-N-(4-piperazin-1-yl-naphthalen-1-yl)-benzenesulfonamide, hydrochloride]",–,–,25.7^a %

SMILES,melting point,"Free plasma concentration of the compounds at steady state (Css, u) [1]","% Inhibition of Food Intake in ob/ob mice at 50 mg/Kg/day, 15 h (ob/ob mouse)","% Inhibition of Food Intake in ob/ob mice, 15 h (ob/ob mouse; dose of 100 mg/kg/d (footnote b))","% Inhibition of Food Intake in ob/ob mice, 15 h (ob/ob mouse; dose of 14.8 mg/kg/d (footnote a))"
"Cl.O=S(=O)(Nc1ccc(N2CCNCC2)c2ccccc12)c1ccc2ccccc2c1 [Example 13, 2-N-[4-(1-piperazinyl)-1-naphthyl]naphthalenesulfonamide, hydrochloride]",–,0.035,24.1%,–,–
"Cl.O=S(=O)(Nc1ccc(N2CCNCC2)c2ccccc12)c1ccc(Br)cc1 [Example 19, 4-Bromo-N-(4-piperazin-1-yl-naphthalen-1-yl)-benzenesulfonamide, hydrochloride]",–,0.150,69.6%,–,–
"Cl.O=S(=O)(Nc1ccc(N2CCNCC2)c2ccccc12)c1ccc(Cl)cc1 [Example 30, 4-Chloro-N-(4-piperazin-1-yl-naphthalen-1-yl)-benzenesulfonamide, hydrochloride]",–,0.275,60.1%,–,–
